What is called Kd is the free concentration of one partner at which half of the binding sites on the other are occupied at equilibrium, for simple one-to-one binding. A word on the IC50: it is the concentration needed to halve the response being measured. Low values mean higher potency, high ones lower potency.

Several values for one entry are separate records, joined by “and”; a condition that tells them apart may be missing. Equal entries are not always repeated.

The text below walks through data of patent publication US20130035326A1 (AMBIT BIOSCIENCES CORPORATION, priority 2009, published 2013).

For one assay, the target named is T1, FLT3 kinase (Homo sapiens, UniProt P36888).
T1 construct: made in house; host or cells: T7 phage display or HEK-293 cells
T1 sequence (P36888 27-993): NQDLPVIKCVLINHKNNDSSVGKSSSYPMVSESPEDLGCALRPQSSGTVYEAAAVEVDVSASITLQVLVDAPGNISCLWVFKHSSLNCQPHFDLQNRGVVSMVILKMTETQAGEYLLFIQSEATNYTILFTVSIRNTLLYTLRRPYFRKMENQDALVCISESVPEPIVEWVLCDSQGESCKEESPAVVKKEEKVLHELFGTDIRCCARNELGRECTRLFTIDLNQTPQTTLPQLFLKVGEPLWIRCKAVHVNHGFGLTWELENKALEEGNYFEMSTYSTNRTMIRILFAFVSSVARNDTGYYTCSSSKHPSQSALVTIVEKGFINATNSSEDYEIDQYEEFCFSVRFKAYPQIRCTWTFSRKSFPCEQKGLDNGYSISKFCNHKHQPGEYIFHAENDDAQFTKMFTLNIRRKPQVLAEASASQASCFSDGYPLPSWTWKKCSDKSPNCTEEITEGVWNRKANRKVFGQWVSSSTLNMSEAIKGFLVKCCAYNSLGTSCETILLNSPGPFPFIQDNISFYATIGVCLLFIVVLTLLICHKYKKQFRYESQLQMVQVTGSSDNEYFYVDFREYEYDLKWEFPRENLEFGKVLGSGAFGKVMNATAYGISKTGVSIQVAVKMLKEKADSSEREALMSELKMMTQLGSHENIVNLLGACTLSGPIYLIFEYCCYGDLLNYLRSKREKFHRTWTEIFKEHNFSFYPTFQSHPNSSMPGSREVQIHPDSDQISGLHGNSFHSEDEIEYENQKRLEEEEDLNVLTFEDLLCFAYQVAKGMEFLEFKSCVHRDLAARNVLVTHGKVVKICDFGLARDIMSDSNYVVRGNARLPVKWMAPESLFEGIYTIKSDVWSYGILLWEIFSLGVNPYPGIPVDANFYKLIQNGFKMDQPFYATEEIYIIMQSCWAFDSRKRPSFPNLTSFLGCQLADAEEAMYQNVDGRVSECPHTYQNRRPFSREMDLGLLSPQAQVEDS
As to the kind of experiment: Competition binding assay, FLT3 Kd. The method, boiled down: (§1)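 Kinases expressed as T7 phage fusions or in HEK-293 cells with DNA tags competed with test compound for immobilized biotinylated affinity ligand on streptavidin beads. Binding ran 1 hour at room temperature in SeaBlock/PBS/Tween/DTT buffer. Bound kinase was eluted with non-biotinylated ligand and quantified by qPCR; Kd from eleven-point threefold dilutions.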

The target in another assay is T2, CSF-1R kinase (Homo sapiens, UniProt P07333).
T2 construct: made in house; host or cells: T7 phage display or HEK-293 cells
As to the kind of experiment: Competition binding assay, CSF-1R Kd. The method, boiled down:
as §1

The target of assay [1] is kinase panel containing either 359 or 386 distinct kinases. As to the kind of experiment: Selectivity score S10 from competition binding against a panel of kinases. The settings on record: compounds at 10 μM; for Kinase specificty: S(10)-359 panel: panel of 359 distinct kinases. The procedure:
Competition binding assays used herein were developed, validated and performed as described in Fabian et al., Nature Biotechnology 2005, 23,329-336. Kinases were produced as fusions to T7 phage (See, Fabian et al. or WO04/015142) or alternatively, the kinases were expressed in HEK-293 cells and subsequently tagged with DNA for PCR detection (See, WO08/005,310). For the binding assays, streptavidin-coated magnetic beads were treated with biotinylated affinity ligands for 30 min at room temperature to generate affinity resins. The liganded beads were blocked with excess biotin and washed with blocking buffer (SeaBlock (Pierce), 1% BSA, 0.05% Tween 20, 1 mM DTT) to remove unbound ligand and to reduce non-specific binding. Binding reactions were assembled by combining kinase, liganded affinity beads, and test compounds in 1× binding buffer (20% SeaBlock, 0.17×PBS, 0.05% Tween 20, 6 mM DTT). Test compounds were prepared as 100× stocks in DMSO and diluted into the aqueous environment. Kds were determined using an eleven point threefold serial dilutions. DMSO or control compounds were was added to control assays lacking a test compound. Primary screen assays were performed in polypropylene 384-well plates in a final volume of 20-40 μL, while Kd determinations were performed in polystyrene 96-well plates in a final volume of 135 μL. The assay plates were incubated at room temperature with shaking for 1 hour to allow the binding reactions to reach equilibrium, and the affinity beads were washed extensively with wash buffer (1×PBS, 0.05% Tween 20) to remove unbound protein. The beads were then resuspended in elution buffer (1×PBS, 0.05% Tween 20, 0.5 μM non-biotinylated affinity ligand) and incubated at room temperature with shaking for 30 min. The kinase concentration in the eluates was measured by quantitative PCR.
A selectivity score (S10) is a quantitative measure of selectivity of a compound against a panel of kinases. An S10 was calculated for a compound by dividing the number of kinases found to have a percent of control (DMSO) less than 10 by the total number of distinct kinases tested (excluding mutant variants). Percent of control (POC) is calculated by subtracting the signal of the control compound (POC=0) from the signal of the test compound and dividing the outcome by the signal of DMSO (POC=100) minus the signal of the control compound. For the compounds disclosed herein, S10 scores were obtained by testing the compounds at 10 μM concentration in a kinase panel containing either 359 or 386 distinct kinases.

The subject of a further assay is MV4-11 cells. As to the kind of experiment: MV4-11 cell proliferation assay (Alamar Blue). In kind it is cell-based. The following applies: Homo sapiens, MV4-11, 72 h, 3 days incubation. The method, boiled down: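 Viability readout: Alamar Blue fluorescence, ex 560/em 590 nm, 3 h after reagent addition, after 3-day exposure of 64,000 MV4-11 cells per well to a 9-point half-log compound series in 0.5% FBS Iscove's. IC50 from duplicate averages, as 50% proliferation inhibition relative to negative control.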

The target of the next assay is T3, KIT kinase (Homo sapiens, UniProt P10721).
T3 construct: made in house; host or cells: T7 phage display or HEK-293 cells
As to the kind of experiment: Competition binding assay, KIT Kd. The method, boiled down:
as §1

T2 sequence (P07333 20-972): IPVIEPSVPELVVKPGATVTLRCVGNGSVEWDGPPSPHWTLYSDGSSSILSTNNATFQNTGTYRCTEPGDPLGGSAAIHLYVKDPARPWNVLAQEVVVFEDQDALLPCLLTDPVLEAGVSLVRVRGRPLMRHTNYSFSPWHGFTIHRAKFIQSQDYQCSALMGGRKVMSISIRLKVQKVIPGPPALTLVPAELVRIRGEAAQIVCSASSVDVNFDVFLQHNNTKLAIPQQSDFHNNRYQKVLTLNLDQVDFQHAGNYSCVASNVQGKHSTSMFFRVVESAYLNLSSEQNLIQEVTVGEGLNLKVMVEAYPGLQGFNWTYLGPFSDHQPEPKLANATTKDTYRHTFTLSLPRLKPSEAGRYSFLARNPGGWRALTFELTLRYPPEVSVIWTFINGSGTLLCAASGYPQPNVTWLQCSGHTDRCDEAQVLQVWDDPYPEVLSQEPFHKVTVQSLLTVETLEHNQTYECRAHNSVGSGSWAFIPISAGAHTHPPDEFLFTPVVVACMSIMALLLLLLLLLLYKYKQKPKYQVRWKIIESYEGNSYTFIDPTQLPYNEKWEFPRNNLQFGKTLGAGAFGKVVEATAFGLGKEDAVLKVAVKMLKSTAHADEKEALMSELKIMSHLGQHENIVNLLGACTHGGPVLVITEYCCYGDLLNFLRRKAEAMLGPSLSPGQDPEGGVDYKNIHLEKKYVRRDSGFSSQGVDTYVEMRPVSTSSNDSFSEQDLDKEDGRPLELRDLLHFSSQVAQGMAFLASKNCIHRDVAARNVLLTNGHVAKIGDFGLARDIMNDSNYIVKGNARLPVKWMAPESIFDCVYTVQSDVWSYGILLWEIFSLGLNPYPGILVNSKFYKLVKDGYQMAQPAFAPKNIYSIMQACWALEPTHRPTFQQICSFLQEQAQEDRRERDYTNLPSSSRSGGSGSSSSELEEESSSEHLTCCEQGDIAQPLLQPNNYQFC
T3 sequence (P10721 26-976): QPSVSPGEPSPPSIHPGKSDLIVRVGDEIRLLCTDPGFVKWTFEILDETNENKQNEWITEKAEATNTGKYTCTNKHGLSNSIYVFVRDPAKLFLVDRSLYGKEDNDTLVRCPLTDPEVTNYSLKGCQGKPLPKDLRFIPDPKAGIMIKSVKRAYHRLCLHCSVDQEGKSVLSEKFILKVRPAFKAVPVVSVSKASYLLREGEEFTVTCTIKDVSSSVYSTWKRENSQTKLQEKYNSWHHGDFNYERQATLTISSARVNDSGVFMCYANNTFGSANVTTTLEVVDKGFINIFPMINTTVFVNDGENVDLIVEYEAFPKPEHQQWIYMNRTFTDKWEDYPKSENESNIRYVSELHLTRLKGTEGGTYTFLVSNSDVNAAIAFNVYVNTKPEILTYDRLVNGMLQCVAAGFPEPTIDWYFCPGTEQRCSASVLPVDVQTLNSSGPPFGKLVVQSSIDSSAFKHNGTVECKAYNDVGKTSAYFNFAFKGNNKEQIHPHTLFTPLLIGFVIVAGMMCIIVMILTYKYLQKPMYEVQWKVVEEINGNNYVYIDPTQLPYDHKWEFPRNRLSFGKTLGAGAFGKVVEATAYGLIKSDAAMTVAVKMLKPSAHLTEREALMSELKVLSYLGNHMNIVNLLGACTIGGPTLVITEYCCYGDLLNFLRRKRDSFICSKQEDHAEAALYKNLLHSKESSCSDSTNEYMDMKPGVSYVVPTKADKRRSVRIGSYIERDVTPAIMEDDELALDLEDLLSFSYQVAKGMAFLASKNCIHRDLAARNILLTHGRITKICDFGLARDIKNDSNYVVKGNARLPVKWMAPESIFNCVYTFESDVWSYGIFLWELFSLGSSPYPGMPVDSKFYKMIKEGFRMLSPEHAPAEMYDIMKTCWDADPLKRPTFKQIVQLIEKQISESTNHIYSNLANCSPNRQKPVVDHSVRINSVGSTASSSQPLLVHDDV

With `CC(C)(C)c1cc(NC(=O)Nc2ccc(-c3cnc4c(c3)OCC(CCO)N4)cc2)no1` (centres unmarked) [Example 5, 1-(5-tert-butylisoxazol-3-yl)-3-(4-(3-(2-hydroxyethyl)-3,4-dihydro-2H-pyrido[3,2-b][1,4]oxazin-7-yl)phenyl)urea], the Kd is at most 1 nM at FLT3 kinase, at most 10 nM at CSF-1R kinase and 1 to 10 nM at KIT kinase. Besides, the “Kinase specificty: S(10)-359 panel” value in assay [1] is given as “B (0.1<B≦0.2 nM)”. Also, the IC50 with MV4-11 cells is at most 1 nM.
Take `CC(C)(C)c1cc(NC(=O)Nc2ccc(-c3cnc(NCCN4CCOCC4)c(C#N)c3)cc2)no1` [Example 6, 1-(5-tert-butylisoxazol-3-yl)-3-(4-(5-cyano-6-(2-morpholinoethylamino)pyridin-3-yl)phenyl)urea]: the figures for the Kd at FLT3 kinase, on CSF-1R kinase and on KIT kinase were 1 to 10 nM, 10 to 100 nM and 1 to 10 nM, respectively. Further, the “Kinase specificty: S(10)-359 panel” value in assay [1] is listed as “A (A≦0.1)”. Also, the IC50 with MV4-11 cells was 1 to 10 nM.
Regarding `CC(C)(C)c1cc(NC(=O)Nc2ccc(-c3ccc(NCCN4CCOCC4)nc3)cc2)no1` [Example 7, 1-(5-tert-butyl-isoxazol-3-yl)-3-{4-[6-(2-morpholin-4-yl-ethylamino)-pyridin-3-yl]-phenyl}urea], the results for the Kd at FLT3 kinase, on CSF-1R kinase and at KIT kinase were at most 1 nM, at most 10 nM and at most 1 nM, respectively. In addition, in assay [1], the “Kinase specificty: S(10)-359 panel” value is given as “A (A≦0.1)”. Moreover, the IC50 with MV4-11 cells lay within 1 to 10 nM.
Turning to `CC(C)(C)c1cc(NC(=O)Nc2ccc(-c3cnc(N)c(CO)c3)cc2)no1` [Example 8, 1-(4-(6-amino-5-(hydroxymethyl)pyridin-3-yl)phenyl)-3-(5-tert-butylisoxazol-3-yl)urea], the Kd on FLT3 kinase is 1 to 10 nM; at CSF-1R kinase, at most 10 nM; on KIT kinase, 1 to 10 nM. The “Kinase specificty: S(10)-359 panel” value in assay [1] is “A (A≦0.1)”. Besides, the IC50 with MV4-11 cells is over 500 nM.
As to `CC(C)(C)c1cc(NC(=O)Nc2ccc(-c3cnc4c(c3)CCC(=O)N4)cc2)no1` [Example 9, 1-(5-tert-butylisoxazol-3-yl)-3-(4-(7-oxo-5,6,7,8-tetrahydro-1,8-naphthyridin-3-yl)phenyl)urea], the dissociation constant Kd is 1 to 10 nM at FLT3 kinase, at most 10 nM on CSF-1R kinase and 1 to 10 nM at KIT kinase. In addition, in assay [1], the “Kinase specificty: S(10)-359 panel” value is recorded as “A (A≦0.1)”. Besides, the IC50 with MV4-11 cells was 10 to 100 nM.
`Cc1cc(N)nc(C)c1-c1ccc(NC(=O)Nc2cc(C(C)(C)C)on2)cc1` [Example 10, 1-(4-(6-amino-2,4-dimethylpyridin-3-yl)phenyl)-3-(5-tert-butylisoxazol-3-yl)urea]: the Kd is 1 to 10 nM at FLT3 kinase, at most 10 nM on CSF-1R kinase and 1 to 10 nM at KIT kinase. Moreover, the “Kinase specificty: S(10)-359 panel” value in assay [1] is listed as “A (A≦0.1)”. Further, in the assay with MV4-11 cells, the IC50 is 100 to 500 nM.
As for `CC(C)(C)c1cc(NC(=O)Nc2ccc(-c3ccc(N)nc3)c(F)c2)no1` [Example 11, 1-(4-(6-aminopyridin-3-yl)-3-fluorophenyl)-3-(5-tert-butylisoxazol-3-yl)urea], the Kd at FLT3 kinase is at most 1 nM; on CSF-1R kinase it was at most 10 nM; on KIT kinase, 1 to 10 nM. The “Kinase specificty: S(10)-359 panel” value in assay [1] is listed as “A (A≦0.1)”. In the assay on MV4-11 cells, this molecule yielded an IC50 of 1 to 10 nM.
With `CC(C)(C)c1cc(NC(=O)Nc2ccc(-c3cnc4c(c3)CCCN4)cc2)no1` [Example 12, 1-(5-tert-butylisoxazol-3-yl)-3-(4-(5,6,7,8-tetrahydro-1,8-naphthyridin-3-yl)phenyl)urea], the Kd on FLT3 kinase is 1 to 10 nM; on CSF-1R kinase, at most 10 nM; on KIT kinase, 1 to 10 nM. The “Kinase specificty: S(10)-359 panel” value in assay [1] was “A (A≦0.1)”. This molecule showed an IC50 with MV4-11 cells of 1 to 10 nM.
Regarding `CC(C)(C)c1cc(NC(=O)Nc2ccc(-c3cnc(N)c(CN4CCOCC4)c3)cc2)no1` [Example 13, 1-(4-(6-amino-5-(morpholinomethyl)pyridin-3-yl)phenyl)-3-(5-tert-butylisoxazol-3-yl)urea], the Kd was 1 to 10 nM at FLT3 kinase, 10 to 100 nM at CSF-1R kinase and 1 to 10 nM at KIT kinase. In addition, in assay [1], the “Kinase specificty: S(10)-359 panel” value is “B (0.1<B≦0.2 nM)”. The molecule also had an IC50 in the assay on MV4-11 cells of 10 to 100 nM.
In the case of `CC(C)(C)c1cc(NC(=O)Nc2ccc(-c3ccc(N)nc3)cc2F)no1` [Example 14, 1-[4-(6-aminopyridin-3-yl)-2-fluorophenyl]-3-(5-tert-butylisoxazol-3-yl)-urea], the Kd on FLT3 kinase was at most 1 nM; on CSF-1R kinase it was at most 10 nM; at KIT kinase, at most 1 nM. Further, the “Kinase specificty: S(10)-359 panel” value in assay [1] is listed as “B (0.1<B≦0.2 nM)”. Besides, in the assay with MV4-11 cells, the IC50 was at most 1 nM.
For the molecule `CC(C)(C)c1cc(NC(=O)Nc2ccc(-c3ccc(N)nc3)cc2Cl)no1` [Example 15, 1-(4-(6-aminopyridin-3-yl)-2-chlorophenyl)-3-(5-tert-butylisoxazol-3-yl)urea], the results for the Kd at FLT3 kinase, at CSF-1R kinase and at KIT kinase were 1 to 10 nM, 10 to 100 nM and 1 to 10 nM, respectively. Moreover, the “Kinase specificty: S(10)-359 panel” value in assay [1] is reported as “B (0.1<B≦0.2 nM)”. In the assay with MV4-11 cells, this molecule yielded an IC50 of 10 to 100 nM.
In the case of `CC(C)(C)c1cc(NC(=O)Nc2ccc(-c3ccc(N)nc3)c(Cl)c2)no1` [Example 16, 1-(4-(6-aminopyridin-3-yl)-3-chlorophenyl)-3-(5-tert-butylisoxazol-3-yl)urea], the Kd at FLT3 kinase is at most 1 nM; on CSF-1R kinase it was 10 to 100 nM; at KIT kinase, at most 1 nM. The “Kinase specificty: S(10)-359 panel” value in assay [1] was “B (0.1<B≦0.2 nM)”. This molecule gave an IC50 in the assay on MV4-11 cells of 1 to 10 nM.
As to `CC(C)(C)c1cc(NC(=O)Nc2ccc(-c3ccc(N)nc3)cn2)no1` [Example 17, 1-(6′-amino-[3,3′]bipyridinyl-6-yl)-3-(5-tert-butylisoxazol-3-yl)urea], the Kd at FLT3 kinase was at most 1 nM; on CSF-1R kinase, at most 10 nM; on KIT kinase it was at most 1 nM. The “Kinase specificty: S(10)-359 panel” value in assay [1] is recorded as “A (A≦0.1)”. In the assay with MV4-11 cells, this molecule displayed an IC50 of 1 to 10 nM.
Consider `CC(C)(C)c1cc(NC(=O)Cc2ccc(-c3ccc(N)nc3)cc2)no1` [Example 18, 2-(4-(6-aminopyridin-3-yl)phenyl)-N-(5-tert-butylisoxazol-3-yl)acetamide], for which the Kd is ≤ 1 nM and 1 to 10 nM on FLT3 kinase; at most 10 nM on CSF-1R kinase; 1 to 10 nM on KIT kinase. Further, the “Kinase specificty: S(10)-359 panel” value in assay [1] is on record as “A (A≦0.1)”. In assay [1] (panel of 386 distinct kinases), the “Kinase specificty: S(10)-386 panel” value was “A (A≦0.1)”. This molecule showed an IC50 in the assay on MV4-11 cells of at most 1 nM.
